According to patent US4337267A, “Phenalkoxyalkyl- and phenoxyalkyl-substituted oxiranecarboxylic acids, their use and medicaments containing them” (Byk Gulden Lomberg Chemische Fabrik GmbH, priority 1980, dated 1982):
Read-outs that look alike come from different tables or passages of the source.

Tests used:
[1] = test system: blood glucose concentration; assay: Determination of glucose in the blood after a single oral administration (fasting, metabolically healthy rats); type: in vivo, rat (young male Sprague-Dawley); details: Rattus norvegicus
Method: Table I reflects investigations of the effect of representative compounds according to the invention on the blood glucose concentration of fasting, metabolically healthy rats which are observed for 6 hours after a single oral administration of from 0.01 to 0.6 mmol of substance/kg of body weight.
1. Determination of glucose in the blood after a single oral administration-
Young male Sprague-Dawley rats (body weight: 150 to 200 g) are used. The animals are kept in Makrolon cages with up to 4 animals per cage (ambient temperature: 23° C., relative atmospheric humidity: 55%, fixed day/night rhythm [12/12 hours], standard diet: Altromin®). The rats are deprived of the feed 18 hours before the first sample of blood is taken. Water is available ad libitum. Samples of blood are taken from the postorbital plexus by puncture immediately before and 3 and 6 hours after administration of the substance.
After deproteinization with perchloric acid, the glucose in the blood is determined by means of the enzymatic HK/G-6-PDH method of R. Richterich [Klinische Chemie, Theorie und Praxis, (Clinical Chemistry, Theory and Practice), 3rd edition, 1971, S. Karger Verlag, Zurich-Basle, page 275]. A control group (treated with pure solvent) is also investigated in each case for comparison.

in vivo = details: mouse, po
Method: Column C provides data relating to acute toxicity (LD50; mice, peroral administration).
2. Determination of the toxicity-
Various doses of the substances (volume: 10 ml/kg) are administered orally by means of a stomach tube. The observation time is 7 days.

[2] = rats p.o., single dose, fasting, observed for 6 hours, with reference to control group, read-out: ED50 (15%): dose which effects a lowering of the blood glucose concentration by at least 15% in 50% of the animals
[3] = rats p.o., single dose, fasting, observed for 6 hours, with reference to control group, read-out: ED50 (25%): dose which effects a lowering of the blood glucose concentration by at least 25% in 50% of the animals

**Q.** Which ED50 ([1]; 6 h, read-out: ED50 (15%): dose which effects a lowering of the blood glucose concentration by at least 15% in 50% of the animals) does the source give for CCCCNC(=N)NC(=N)N [Serial No. 1, Buformin, reference compound] here?
**A.** > 100 mg/kg

**Q.** What about the ED50 ([1]; 6 h, read-out: ED50 (25%): dose which effects a lowering of the blood glucose concentration by at least 25% in 50% of the animals) of the same compound?
**A.** 194 mg/kg

**Q.** With [H]/N=C(/N)N/C(=N/[H])NCCc1ccccc1 [Serial No. 2, Phenformin, reference compound] as the compound, how does the ED50 [1, 2] read?
**A.** > 150 mg/kg

**Q.** What about the ED50 [1, 3] of the same compound?
**A.** > 343 mg/kg

**Q.** What does the source list for CCOC(=O)C1(CCCCOc2cccc(Cl)c2)CO1 (stereo not drawn) [Serial No. 3, 2-[4-(3-Chlorophenoxy)butyl]oxirane-2-carboxylic acid ethyl ester]?
**A.** ED50 [1, 2]: 3 mg/kg; ED50 [1, 3]: 24 mg/kg; LD50 at 168 h (in vivo): 390 mg/kg

**Q.** What does the source list for CCOC(=O)C1(CCCCOc2cccc(C(F)(F)F)c2)CO1 (stereo not drawn) [Serial No. 4, 2-[4-(3-Trifluoromethylphenoxy)butyl]oxirane-2-carboxylic acid ethyl ester]?
**A.** ED50 [1, 2]: ~7 mg/kg; ED50 [1, 3]: 13 mg/kg; LD50 at 168 h (in vivo): 460 mg/kg

**Q.** What does the source list for CCOC(=O)C1(CCCCCCOc2ccc(Cl)cc2)CO1 (stereo not drawn) [Serial No. 5, 2-[6-(4-Chlorophenoxy)hexyl]oxirane-2-carboxylic acid ethyl ester]?
**A.** ED50 [1, 2]: < 7 mg/kg; ED50 [1, 3]: 7 mg/kg; LD50 at 168 h (in vivo): 300 mg/kg

**Q.** With CCOC(=O)C1(CCCCCOc2ccc(Cl)cc2)CO1 (stereo not drawn) [Serial No. 6, 2-[5-(4-Chlorophenoxy)pentyl]oxirane-2-carboxylic acid ethyl ester] as the compound, how does the ED50 [1, 2] read?
**A.** 5 mg/kg

**Q.** What about the ED50 [1, 3] of the same compound?
**A.** 6 mg/kg

**Q.** What about the LD50 at 168 h (in vivo) of the same compound?
**A.** 310 mg/kg

**Q.** Which ED50 [1, 2] does the source give for CCOC(=O)C1(CCCCOc2ccc(C)cc2)CO1 (stereo not drawn) [Serial No. 7, 2-[4-(4-Methylphenoxy)butyl]oxirane-2-carboxylic acid ethyl ester] here?
**A.** 8 mg/kg

**Q.** What about the ED50 [1, 3] of the same compound?
**A.** 19 mg/kg
